# Test results taken from article PMC4385830, “Group I Paks as therapeutic targets in NF2-deficient meningioma” (Oncotarget, 2015).
# Assays:
# CDK6/p25 = target: T1, CDK6/p25 (Homo sapiens, UniProt Q00535); test: Kinase selectivity, Z'-LYTE; format: biochemical
# T1 construct: purchased Invitrogen (Life Technologies) SelectScreen Z'-LYTE
# Method in brief: (§1)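 Recombinant kinase, per-kinase optimized mix; FRET peptide read-out after protease development (phospho-peptide resists cleavage).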
# NTRK1 (TRKA) = target: T2, NTRK1 (TRKA) (Homo sapiens, UniProt P04629); test: Kinase selectivity, Z'-LYTE; format: biochemical
# T2 construct: purchased Invitrogen (Life Technologies) SelectScreen Z'-LYTE
# Method in brief: as §1
# LYNA = target: T3, LYNA (Homo sapiens, UniProt P07948); test: Kinase selectivity, Z'-LYTE; format: biochemical
# T3 construct: purchased Invitrogen (Life Technologies) SelectScreen Z'-LYTE
# T3 sequence (P07948 whole entry): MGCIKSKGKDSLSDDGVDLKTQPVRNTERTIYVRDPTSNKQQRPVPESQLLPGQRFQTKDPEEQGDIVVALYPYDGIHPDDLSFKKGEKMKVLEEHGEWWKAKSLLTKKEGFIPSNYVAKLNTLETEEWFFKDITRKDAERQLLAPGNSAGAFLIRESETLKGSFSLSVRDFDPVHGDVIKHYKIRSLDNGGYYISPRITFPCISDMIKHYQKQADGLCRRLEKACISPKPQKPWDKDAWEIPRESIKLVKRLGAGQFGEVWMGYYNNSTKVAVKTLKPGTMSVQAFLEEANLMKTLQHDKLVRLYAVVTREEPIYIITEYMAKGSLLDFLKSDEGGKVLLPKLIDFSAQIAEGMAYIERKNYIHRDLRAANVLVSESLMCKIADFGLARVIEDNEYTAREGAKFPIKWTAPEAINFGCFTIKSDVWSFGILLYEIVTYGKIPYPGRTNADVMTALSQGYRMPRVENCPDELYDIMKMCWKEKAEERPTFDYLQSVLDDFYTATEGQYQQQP
# Method in brief: as §1
# ABL2 (Arg) = target: T4, ABL2 (Arg) (Homo sapiens, UniProt P42684); test: Kinase selectivity, Z'-LYTE; format: biochemical
# T4 construct: purchased Invitrogen (Life Technologies) SelectScreen Z'-LYTE
# Method in brief: as §1
# MAPK9 (JNK2) = target: T5, MAPK9 (JNK2) (Homo sapiens, UniProt P45984); test: Kinase selectivity, Z'-LYTE; format: biochemical
# T5 construct: purchased Invitrogen (Life Technologies) SelectScreen Z'-LYTE
# T5 sequence (P45984 whole entry): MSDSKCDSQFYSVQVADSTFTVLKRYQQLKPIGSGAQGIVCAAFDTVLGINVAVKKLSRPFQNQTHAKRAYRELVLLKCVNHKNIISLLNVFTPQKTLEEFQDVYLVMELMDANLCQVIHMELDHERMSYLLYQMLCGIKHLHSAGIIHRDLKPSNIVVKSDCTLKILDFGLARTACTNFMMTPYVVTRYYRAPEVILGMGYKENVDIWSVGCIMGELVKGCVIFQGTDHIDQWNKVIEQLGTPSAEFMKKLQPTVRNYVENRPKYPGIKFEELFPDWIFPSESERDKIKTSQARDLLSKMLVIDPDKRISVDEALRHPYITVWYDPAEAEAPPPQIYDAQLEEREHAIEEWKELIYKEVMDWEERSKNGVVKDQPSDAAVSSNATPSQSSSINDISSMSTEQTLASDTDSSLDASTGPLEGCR
# Method in brief: as §1
# MAPK11 (p38 beta) = target: T6, MAPK11 (p38 beta) (Homo sapiens, UniProt Q15759); test: Kinase selectivity, Z'-LYTE; format: biochemical
# T6 construct: purchased Invitrogen (Life Technologies) SelectScreen Z'-LYTE
# T6 sequence (Q15759 whole entry): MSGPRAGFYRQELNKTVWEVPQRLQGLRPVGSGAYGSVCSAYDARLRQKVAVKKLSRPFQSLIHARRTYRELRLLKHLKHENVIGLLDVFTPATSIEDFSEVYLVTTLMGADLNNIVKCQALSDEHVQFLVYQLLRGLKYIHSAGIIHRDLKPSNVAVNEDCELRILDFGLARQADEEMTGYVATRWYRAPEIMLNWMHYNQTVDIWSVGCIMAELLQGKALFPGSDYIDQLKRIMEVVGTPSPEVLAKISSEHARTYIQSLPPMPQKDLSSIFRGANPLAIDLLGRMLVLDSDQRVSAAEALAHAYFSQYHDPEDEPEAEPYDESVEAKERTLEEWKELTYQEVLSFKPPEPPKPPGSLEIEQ
# Method in brief: as §1
# AKT2 (PKB beta) = target: T7, AKT2 (PKB beta) (Homo sapiens, UniProt P31751); test: Kinase selectivity, Z'-LYTE; format: biochemical
# T7 construct: purchased Invitrogen (Life Technologies) SelectScreen Z'-LYTE
# Method in brief: as §1
# AMPKA2/B1/G1 = target: T8, AMPKA2/B1/G1 (Homo sapiens, UniProt P54646); test: Kinase selectivity, Z'-LYTE; format: biochemical
# T8 construct: purchased Invitrogen (Life Technologies) SelectScreen Z'-LYTE
# Method in brief: as §1
# AMPKA1/B1/G1 = target: T9, AMPKA1/B1/G1 (Homo sapiens, UniProt Q13131); test: Kinase selectivity, Z'-LYTE; format: biochemical
# T9 construct: purchased Invitrogen (Life Technologies) SelectScreen Z'-LYTE
# Method in brief: as §1
# DYRK1A = target: T10, DYRK1A (Homo sapiens, UniProt Q13627); test: Kinase selectivity, Z'-LYTE; format: biochemical
# T10 construct: purchased Invitrogen (Life Technologies) SelectScreen Z'-LYTE
# Method in brief: as §1
# CSF1R (FMS) = target: T11, CSF1R (FMS) (Homo sapiens, UniProt P07333); test: Kinase selectivity, Z'-LYTE; format: biochemical
# T11 construct: purchased Invitrogen (Life Technologies) SelectScreen Z'-LYTE
# T11 sequence (P07333 20-972): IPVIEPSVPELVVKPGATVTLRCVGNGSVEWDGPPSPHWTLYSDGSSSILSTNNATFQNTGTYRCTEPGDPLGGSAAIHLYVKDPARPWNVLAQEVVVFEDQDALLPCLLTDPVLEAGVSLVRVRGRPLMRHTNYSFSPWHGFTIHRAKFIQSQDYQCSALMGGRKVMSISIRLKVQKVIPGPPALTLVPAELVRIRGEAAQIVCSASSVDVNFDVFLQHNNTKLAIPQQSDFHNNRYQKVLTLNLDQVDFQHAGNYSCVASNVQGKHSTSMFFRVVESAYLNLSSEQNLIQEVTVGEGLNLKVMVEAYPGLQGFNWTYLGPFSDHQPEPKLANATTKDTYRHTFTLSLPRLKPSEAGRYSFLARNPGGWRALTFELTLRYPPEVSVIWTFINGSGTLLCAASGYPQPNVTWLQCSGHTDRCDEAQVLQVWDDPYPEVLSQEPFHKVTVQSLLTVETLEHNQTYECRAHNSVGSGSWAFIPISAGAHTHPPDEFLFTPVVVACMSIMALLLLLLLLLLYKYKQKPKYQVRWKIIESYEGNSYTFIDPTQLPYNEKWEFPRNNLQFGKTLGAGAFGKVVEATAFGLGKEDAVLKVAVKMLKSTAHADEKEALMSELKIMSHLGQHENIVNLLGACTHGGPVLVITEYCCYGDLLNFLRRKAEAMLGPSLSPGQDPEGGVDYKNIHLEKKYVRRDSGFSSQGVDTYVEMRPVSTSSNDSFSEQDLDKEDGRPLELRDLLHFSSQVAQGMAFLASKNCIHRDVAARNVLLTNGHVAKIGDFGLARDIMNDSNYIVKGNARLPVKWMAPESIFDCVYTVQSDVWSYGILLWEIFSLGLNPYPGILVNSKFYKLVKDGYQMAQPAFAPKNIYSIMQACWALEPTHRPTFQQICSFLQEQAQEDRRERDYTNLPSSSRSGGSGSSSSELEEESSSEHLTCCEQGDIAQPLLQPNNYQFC
# Method in brief: as §1
# MAP2K2 (MEK2) = target: T12, MAP2K2 (MEK2) (Homo sapiens, UniProt P36507); test: Kinase selectivity, Z'-LYTE; format: biochemical
# T12 construct: purchased Invitrogen (Life Technologies) SelectScreen Z'-LYTE
# T12 sequence (P36507 whole entry): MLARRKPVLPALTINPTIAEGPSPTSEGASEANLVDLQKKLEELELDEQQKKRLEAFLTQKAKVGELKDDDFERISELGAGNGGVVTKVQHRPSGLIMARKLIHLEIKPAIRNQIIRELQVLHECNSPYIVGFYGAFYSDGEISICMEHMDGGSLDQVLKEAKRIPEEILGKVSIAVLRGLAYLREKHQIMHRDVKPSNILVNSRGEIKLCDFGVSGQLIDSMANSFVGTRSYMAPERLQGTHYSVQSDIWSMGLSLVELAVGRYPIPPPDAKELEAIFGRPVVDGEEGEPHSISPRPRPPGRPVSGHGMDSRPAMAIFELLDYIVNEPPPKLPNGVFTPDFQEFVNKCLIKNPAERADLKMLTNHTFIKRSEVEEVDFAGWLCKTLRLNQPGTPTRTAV
# Method in brief: as §1
# DYRK1B = target: T13, DYRK1B (Homo sapiens, UniProt Q9Y463); test: Kinase selectivity, Z'-LYTE; format: biochemical
# T13 construct: purchased Invitrogen (Life Technologies) SelectScreen Z'-LYTE
# Method in brief: as §1
# CSNK1G2 (CK1 gamma 2) = target: T14, CSNK1G2 (CK1 gamma 2) (Homo sapiens, UniProt P78368); test: Kinase selectivity, Z'-LYTE; format: biochemical
# T14 construct: purchased Invitrogen (Life Technologies) SelectScreen Z'-LYTE
# T14 sequence (P78368 whole entry): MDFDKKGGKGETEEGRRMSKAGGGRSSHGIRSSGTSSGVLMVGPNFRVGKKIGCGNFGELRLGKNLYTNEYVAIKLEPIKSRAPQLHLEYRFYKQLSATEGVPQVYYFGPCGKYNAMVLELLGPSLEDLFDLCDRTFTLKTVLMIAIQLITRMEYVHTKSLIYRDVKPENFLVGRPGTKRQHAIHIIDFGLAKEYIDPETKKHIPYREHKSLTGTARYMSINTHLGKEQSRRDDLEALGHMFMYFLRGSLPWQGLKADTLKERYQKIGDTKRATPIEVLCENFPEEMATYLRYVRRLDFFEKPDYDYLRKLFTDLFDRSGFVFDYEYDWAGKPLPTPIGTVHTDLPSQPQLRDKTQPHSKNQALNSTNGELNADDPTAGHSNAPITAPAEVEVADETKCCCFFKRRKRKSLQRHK
# Method in brief: as §1
# RET = target: T15, RET (Homo sapiens, UniProt P07949); test: Kinase selectivity, Z'-LYTE; format: biochemical
# T15 construct: purchased Invitrogen (Life Technologies) SelectScreen Z'-LYTE
# Method in brief: as §1
# Pak1 = Pak1 (Homo sapiens, UniProt Q13153); test: Kinase selectivity, Z'-LYTE; format: biochemical
# Method in brief: as §1
# ITK = target: T16, ITK (Homo sapiens, UniProt Q08881); test: Kinase selectivity, Z'-LYTE; format: biochemical
# T16 construct: purchased Invitrogen (Life Technologies) SelectScreen Z'-LYTE
# T16 sequence (Q08881 1-620): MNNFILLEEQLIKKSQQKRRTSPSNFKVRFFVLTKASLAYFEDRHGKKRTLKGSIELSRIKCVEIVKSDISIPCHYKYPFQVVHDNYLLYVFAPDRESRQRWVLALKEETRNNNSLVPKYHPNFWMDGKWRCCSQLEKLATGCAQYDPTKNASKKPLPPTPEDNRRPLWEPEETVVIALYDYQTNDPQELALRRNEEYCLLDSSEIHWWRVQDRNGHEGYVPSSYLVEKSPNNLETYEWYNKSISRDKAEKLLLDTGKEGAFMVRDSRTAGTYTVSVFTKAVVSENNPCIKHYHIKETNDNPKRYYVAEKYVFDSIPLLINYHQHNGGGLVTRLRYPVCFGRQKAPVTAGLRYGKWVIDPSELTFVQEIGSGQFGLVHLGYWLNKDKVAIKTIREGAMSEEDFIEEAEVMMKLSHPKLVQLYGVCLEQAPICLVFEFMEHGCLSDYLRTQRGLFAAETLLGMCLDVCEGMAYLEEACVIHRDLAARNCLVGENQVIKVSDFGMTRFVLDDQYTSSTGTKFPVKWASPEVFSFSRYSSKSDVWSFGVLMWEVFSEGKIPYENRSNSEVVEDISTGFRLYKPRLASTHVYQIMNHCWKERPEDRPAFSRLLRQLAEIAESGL
# Method in brief: as §1
# ERBB2 (HER2) = target: T17, ERBB2 (HER2) (Homo sapiens, UniProt P04626); test: Kinase selectivity, Z'-LYTE; format: biochemical
# T17 construct: purchased Invitrogen (Life Technologies) SelectScreen Z'-LYTE
# T17 sequence (P04626 23-1255): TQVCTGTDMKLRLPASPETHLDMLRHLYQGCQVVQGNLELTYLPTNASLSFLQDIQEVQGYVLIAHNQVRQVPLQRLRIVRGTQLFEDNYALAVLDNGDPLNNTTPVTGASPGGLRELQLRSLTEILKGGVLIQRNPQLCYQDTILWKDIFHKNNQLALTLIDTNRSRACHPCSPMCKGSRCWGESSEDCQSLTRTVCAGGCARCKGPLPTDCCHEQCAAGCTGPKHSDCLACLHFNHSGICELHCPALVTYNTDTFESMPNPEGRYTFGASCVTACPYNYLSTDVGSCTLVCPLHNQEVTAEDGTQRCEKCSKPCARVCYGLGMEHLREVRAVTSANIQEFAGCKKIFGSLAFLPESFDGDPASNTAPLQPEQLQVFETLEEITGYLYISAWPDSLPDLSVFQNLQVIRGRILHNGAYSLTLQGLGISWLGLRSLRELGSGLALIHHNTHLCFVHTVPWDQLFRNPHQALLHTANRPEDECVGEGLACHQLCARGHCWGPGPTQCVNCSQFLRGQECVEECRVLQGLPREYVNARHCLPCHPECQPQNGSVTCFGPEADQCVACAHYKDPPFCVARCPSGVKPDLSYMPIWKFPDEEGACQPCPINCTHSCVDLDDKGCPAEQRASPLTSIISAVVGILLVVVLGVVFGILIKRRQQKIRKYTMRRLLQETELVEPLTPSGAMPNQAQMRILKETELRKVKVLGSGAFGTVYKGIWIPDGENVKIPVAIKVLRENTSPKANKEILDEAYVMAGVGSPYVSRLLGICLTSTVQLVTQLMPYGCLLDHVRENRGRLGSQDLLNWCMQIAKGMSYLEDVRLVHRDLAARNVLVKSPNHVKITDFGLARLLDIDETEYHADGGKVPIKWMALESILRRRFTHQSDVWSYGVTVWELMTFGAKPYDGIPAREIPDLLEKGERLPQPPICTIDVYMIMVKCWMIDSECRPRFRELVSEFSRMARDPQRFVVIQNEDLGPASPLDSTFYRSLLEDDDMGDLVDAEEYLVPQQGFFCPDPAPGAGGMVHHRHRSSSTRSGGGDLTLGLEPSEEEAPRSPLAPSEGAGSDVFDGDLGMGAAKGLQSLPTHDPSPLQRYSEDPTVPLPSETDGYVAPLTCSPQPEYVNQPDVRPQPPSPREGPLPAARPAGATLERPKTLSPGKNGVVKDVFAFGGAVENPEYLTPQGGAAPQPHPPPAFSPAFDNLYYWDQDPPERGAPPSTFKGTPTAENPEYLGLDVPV
# Method in brief: as §1
# CDK2/cyclin A = target: T18, CDK2/cyclin A (Homo sapiens, UniProt P24941); test: Kinase selectivity, Z'-LYTE; format: biochemical
# T18 construct: purchased Invitrogen (Life Technologies) SelectScreen Z'-LYTE
# Method in brief: as §1
# MAPK8 (JNK1) = target: T19, MAPK8 (JNK1) (Homo sapiens, UniProt P45983); test: Kinase selectivity, Z'-LYTE; format: biochemical
# T19 construct: purchased Invitrogen (Life Technologies) SelectScreen Z'-LYTE
# T19 sequence (P45983 whole entry): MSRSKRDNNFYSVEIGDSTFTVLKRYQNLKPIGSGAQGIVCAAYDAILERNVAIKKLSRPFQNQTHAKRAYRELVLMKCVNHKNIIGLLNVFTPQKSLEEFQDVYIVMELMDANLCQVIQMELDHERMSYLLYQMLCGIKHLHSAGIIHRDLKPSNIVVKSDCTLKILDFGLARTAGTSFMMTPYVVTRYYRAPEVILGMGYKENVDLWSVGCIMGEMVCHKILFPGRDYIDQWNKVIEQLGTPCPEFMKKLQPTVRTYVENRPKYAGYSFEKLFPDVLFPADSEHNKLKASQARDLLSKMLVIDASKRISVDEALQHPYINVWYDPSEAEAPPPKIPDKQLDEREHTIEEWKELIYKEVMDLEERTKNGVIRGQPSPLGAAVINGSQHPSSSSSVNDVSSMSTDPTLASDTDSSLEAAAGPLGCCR
# Method in brief: as §1
# RAF1 (cRAF) Y340D Y341D = target: T20, RAF1 (cRAF) Y340D Y341D (Homo sapiens, UniProt P04049, Y340D/Y341D); test: Kinase selectivity, Z'-LYTE; format: biochemical
# T20 construct: purchased Invitrogen (Life Technologies) SelectScreen Z'-LYTE
# Method in brief: as §1
# Malignant KT21-MG1 = test: Cell viability, MTT assay; format: cell-based; details: NF2−/−; 72 hrs; MTT
# Method: (§2) Cells were plated at 3 × 10^3 cells per well in 96-well plates overnight and treated with various concentrations of Pak inhibitors for 72 hours. Cell viability was measured by MTT assay and the half maximal inhibitory concentration (IC50) was calculated.
# Benign Ben-Men-1 = test: Cell viability, MTT assay; format: cell-based; details: NF2−/−; 72 hrs; MTT
# Method: as §2
# Arachnoid cell AC07 = test: Cell viability, MTT assay; format: cell-based; details: NF2+/+, 72 hrs
# Method: as §2
# Malignant MN525 = test: Cell viability, MTT assay; format: cell-based; details: NF2+/+
# Method: as §2
# Benign MN328 = test: Cell viability, MTT assay; format: cell-based; details: NF2+/+
# Method: as §2
# [1] = system: KT21-MG1-Luc5D intracranial xenografts; test: Orthotopic meningioma model, bioluminescence imaging; details: for loss of body weight compared with control littermates: SCID mice bearing KT21
# Description: Eight-week-old SCID mice were anesthetized with ketamine and their heads were stabilized in a small animal stereotaxic instrument. A midline sagittal incision was made on the cranial skin. A burr hole was drilled in the skull with coordinated 1.5 mm anterior and 1.5 mm lateral to the right from the bregma and a 5-μl Hamilton syringe loaded with cells was slowly inserted through the burr hole and ~0.5 mm downward to the skull base. The incision was closed using surgical absorbable gut suture.
# Mice transplanted with meningioma cells were imaged using Xenogen IVIS Spectrum (Caliper, MA). Mice were injected intraperitoneally with Rediject D-Luciferin Ultra at 150 mg/kg under anesthetized with isofluorane. Luciferase activity was measured and all bioluminescence imaging was conducted when perk signal was reached. Once tumors were established (~3 weeks post-transplantation), mice were divided into groups for shRNA studies or drug treatments.
# For drugs treatment, mice were dosed with Pak inhibitors daily for 14–21 days and tumor growth was monitored every week by BLI. Mean luminescence for each treatment groups (n = 5) was calculated as described previously.
# Ben-Men cells = test: Immunoblot of signaling pathways; format: cell-based
# Method: (§3) Protein concentration was determined, and equal amount of total proteins were separated by SDS-PAGE. […] GAPDH and β-actin were used as loading control.
# KT21 or Ben-Men cells = test: Immunoblot of signaling pathways; format: cell-based
# Method: as §3
# [2] = inhibitors at IC50 concentration
Structure (SMILES),% inhibition of activity (CDK6/p25),% inhibition of activity (NTRK1 (TRKA)),% inhibition of activity (LYNA),% inhibition of activity (MAPK9 (JNK2)),% inhibition of activity (MAPK11 (p38 beta)),% inhibition of activity (DYRK1A),% inhibition of activity (CSF1R (FMS)),% inhibition of activity (MAP2K2 (MEK2)),% inhibition of activity (CSNK1G2 (CK1 gamma 2)),% inhibition of activity (ITK),% inhibition of activity (ERBB2 (HER2)),% inhibition of activity (MAPK8 (JNK1)),% inhibition of activity (RAF1 (cRAF) Y340D Y341D),IC50 (Malignant KT21-MG1),IC50 (Benign Ben-Men-1),IC50 (Arachnoid cell AC07),IC50 (Malignant MN525; 72 hrs),IC50 (Benign MN328; 72 hrs),basal level (expression) of β-catenin (Ben-Men cells),phosphorylation of Pak and Mek1 (at Ser298) (KT21 or Ben-Men cells; [2]),further results
CCn1c(=O)c(-c2ccc(-c3noc(C)n3)cc2Cl)cc2cnc(Nc3ccc(C4CCN(C)CC4)cc3)nc21 [Frax716],3%,92%,88%,20%,2%,3%,97%,79%,3%,84%,8%,30%,74%,1.1 µM,0.218 µM,0.288 µM,0.494 µM,0.718 µM,did not impact,dramatically inhibited,"% inhibition of activity (ABL2 (Arg)): 82%; % inhibition of activity (AKT2 (PKB beta)): 9%; % inhibition of activity (AMPKA2/B1/G1): 29%; % inhibition of activity (AMPKA1/B1/G1): 13%; % inhibition of activity (DYRK1B): 13%; % inhibition of activity (RET): 91%; % inhibition of activity (Pak1): 95%; % inhibition of activity (CDK2/cyclin A): 0%; loss of body weight compared with control littermates ([1]; oral gavage 20 mg/kg/day): > 10%; reduction on bioluminescence ([1]; SCID mice, KT21, oral gavage 20 mg/kg/day, 2 weeks, P = 0.028): 60%; phosphorylation of β-catenin (Ben-Men cells): diminished"
CCn1c(=O)c(-c2ccc(-c3cncc(C)n3)cc2Cl)cc2cnc(NCCC3CCN(C)CC3)nc21 [Frax1036],,,39%,44%,6%,5%,41%,15%,3%,0%,2%,79%,11%,1.99 µM,1.89 µM,1.24 µM,3.3 µM,4.24 µM,induction,nearly abolished,"% inhibition of activity (RET): 8%; % inhibition of activity (CDK2/cyclin A): −14%; loss of body weight compared with control littermates ([1]; Frax597 90 mg/kg/day, Frax1036 30 mg/kg/day, oral gavage): not seen; reduction in BMI signals ([1]; SCID mice, KT21, oral gavage 30 mg/kg/day, 2 weeks, P = 0.042): 37%"
"Cc1nc(Nc2[nH]nc3c2CN(C(=O)N[C@H](CN(C)C)c2ccccc2)C3(C)C)c2sccc2n1 [PF3758309, reference compound]",18%,73%,76%,0%,8%,6%,20%,20%,9%,23%,4%,9%,26%,0.376 µM,0.0293 µM,1.38 µM,5.32 µM,3.43 µM,induction,dramatically inhibited,% inhibition of activity (ABL2 (Arg)): 77%; % inhibition of activity (AKT2 (PKB beta)): 0%; % inhibition of activity (AMPKA2/B1/G1): 100%; % inhibition of activity (AMPKA1/B1/G1): 100%; % inhibition of activity (DYRK1B): 7%; % inhibition of activity (Pak1): 100%; IC50 (Malignant MN525; 72 h): 5.3 µM; IC50 (Benign MN328; 72 h): 3.4 µM; activity of Akt (KT21 or Ben-Men cells; either cell type): did not influence; Erk activity (KT21 or Ben-Men cells; [2]): decrease
